Molecular target: Fatty acid-binding protein, heart (Homo sapiens, UniProt P05413)
Sequence (P05413 whole entry): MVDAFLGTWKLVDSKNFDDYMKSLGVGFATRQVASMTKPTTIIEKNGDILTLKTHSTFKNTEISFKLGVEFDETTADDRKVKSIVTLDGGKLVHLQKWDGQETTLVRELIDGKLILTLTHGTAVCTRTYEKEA

Compound | IC50
Oc1cc(C(F)(F)F)nc(NCc2ccc(Cl)cc2)n1 | > 100 µM
CN(Cc1ccccc1)c1nc(C(F)(F)F)cc(=O)[nH]1 | > 100 µM

Reference: ChEMBL document CHEMBL1137029, “Substituted benzylamino-6-(trifluoromethyl)pyrimidin-4(1H)-ones: a novel class of selective human A-FABP inhibitors” (Bioorg Med Chem Lett, 2004)
